This note sets out measurements from patent publication US4496591A, “Insecticidal bis-carbamate sulfides” (priority 1981, dated 1985).

Type in all cases: in vivo
For data set [1], the system named is root-knot nematode, Meloidogyne incognita var. acrita. Put plainly: Nematocide test. The conditions noted are these: 3.33 m.g. per jar, cucumber, approximately 3 weeks. The arrangement: key: 1: severe galling, equal to untreated plants; 2: moderate galling; 3: light galling; 4: very light galling; 5: no galling, perfect control. The method, then: The test organism used was the infective migratory larvae of the root-knot nematode, Meloidogyne incognita var. acrita, reared in the greenhouse on roots of cucumber plants. Infected plants were removed from the culture, and the roots were chopped very finely. A small amount of this inoculum was added to a pint jar containing approximately 180 cc. of soil. The jars were capped and incubated for one week at room temperature. During this period eggs of the nematode were hatched, and the larval forms migrated into the soil.
Ten ml. of the test formulation were added to each of the two jars for each dosage tested. Following the addition of chemical, the jars were capped, and the contents thoroughly mixed on a ball mill for […].
The test compounds were formulated by a standard procedure of solution in acetone addition of an emulsifier, and dilution with water. Primary screening tests were conducted at 3.33 m.g. of the test compound per jar.
The jars were left capped at room temperature for a period of 48 hours, and the contents then transferred to 3 inch pots. Subsequently, the pots were seeded to cucumber as an indicator crop and placed in the greenhouse where they were cared for in the normal fashion for approximately 3 weeks.
The cucumber plants were then taken from the pots, the soil removed from the roots, and the amount of galling visually rated.
In the test for activity against nematodes activity was rated as follows: […]

Data set [2] relates to house flies (Musca domestica, L.). Put plainly: Fly bait test. Further details: key: A: excellent control; B: partial control; C: no control at 500 ppm. The conditions noted are these: 500 parts per million, sugar bait, twenty-four hours. The method, then: Suspensions of the test compounds were prepared by dissolving one gram of compound in 50 milliliters of acetone in which had been dissolved 0.1 gram (10 percent of the weight of compound) of an alkylphenoxy polyethoxyethanol surfactant, as an emulsifying or dispersing agent. The resulting solution was mixed into 150 milliliters of water to give roughly 200 milliliters of a suspension containing the compound in finely divided form. The thus-prepared stock suspension contained 0.5 percent by weight of compound. The concentrations in parts per million by weight employed in the tests described hereinbelow were obtained by appropriate dilutions of the stock suspension with water. The test procedures were as follows:
Four to six day old adult house flies (Musca domestica, L.), reared according to the specifications of the Chemical Specialties Manufacturing Association (Blue Book, McNair-Dorland Co., N.Y. 1954; pages 243-244, 261) under controlled conditions of 80±5° F. and 50±5 percent relative humidity, were the test insects. The flies were immobilized by anesthetizing them with carbon dioxide. Twenty-five immobilized individuals, males and females, were transferred to a cage consisting of a standard food strainer about five inches in diameter which was inverted over a wrapping-paper-covered surface. The test compounds were formulated by diluting the stock suspension with a 10 percent (by weight) sugar solution to give a suspension containing 500 parts of test compound per million parts of final formulation, by weight. Ten milliliters of the test formulation were added to a souffle cup containing a one-inch square of an absorbent cotton pad. This bait cup was introduced and centered on the blotting paper under the food strainer prior to admitting the anesthetized flies. The caged flies were allowed to feed on the bait for twenty-four hours, at a temperature of 80±5° F. and at a relative humidity of 50±5 percent.
In these tests the pesticidal activity of the compounds at the indicated dosage rate against aphid, Southern Armyworm, Bean Beetle and housefly was rated as follows: […]

For data set [3], the system named is housefly adults (Musca domestica). The data set is described as follows: Comparative residual effect in soil. The method, then: Selected species of the new compounds were evaluated for their residual pesticidal activity in soil. […] The residual activity test were conducted using five to seven-day old housefly adults (Musca domestica).
The soil mixture used was one part agricultural soil and three parts sand. The agricultural soil was stored in plastic bags in a freezer, immediately after removal from the field. This was done to reduce microbial multiplication. Two weeks prior to use, the soil was thawed and held at room temperature to allow microbial population to equilibrate. The sand and soil were sifted to remove clumps and debris and were then blended by rolling on a roller mill in a closed metal container. The moisture level was adjusted to 15% by weight.
The concentration in the soil of the compound to be tested was four times the amount (in parts per million) necessary to achieve a mortality rate of 50% on contact with the soil (LD50). This is in accordance with the procedure developed by C. R. Harris of the Research Institute, Canadian Department of Agriculture, London, Ontario. Such procedure is disclosed in "Biological Activity of Chloropyrifos, Chlorpyrifor-Methyl, Phorate, and Counter® in Soil", The Canadian Entomologist, Vol. 109, pp. 1115-1120 (August 1977); and in "Laboratory Studies on the Persistance of Biological Activity of Some Insecticides in Soils", Journal of Economic Entomology, Vol. 62, No. 6, pp. 1437-1441 (December 1969).
An appropriate amount of compound was dissolved in an acetone--Triton solution and was diluted with water. Five mililiters of the formulated chemical was applied to four ounces of soil mixture and rolled in a 16-ounce glass jar to blend the compound evenly with the soil. Ten mililiters of granular cane sugar was then mixed thoroughly with the treated soil in an eight-ounce plastic container.
Twenty-five housefly adults, anesthetized with CO2, were then transferred to the soil and were covered with a perforated plastic lid. The test containers were held for 24 hours in a constant environment at a temperature of 80±5° F. and a relative humidity of […]. Mortality was based on the ability of the fly to move in a normal manner without spinning.
The above process was repeated on treated soil which had been incubated at 25° C. and 90% relative humidity for 1, 4, 6 and 8 weeks after initial exposure. This was necessary because the soil is incubated without sugar, sugar being added at the time of reinfestation. For this reason, appropriate volumes of soil had to be treated at the start of the soil test to last for the expected residual period.

On to `CSC(C)=NOC(=O)N(C)SN(C)C(=O)Oc1cccc(C=O)c1` [Compound 3], for which the “Root-Knot Nematode, galling rating” value in data set [1] stood at 1. In addition, the “Housefly, pesticidal activity rating” value in data set [2] is “A”. The “Residual effect in soil (mortality), 0 weeks” value in data set [3] (0 weeks, soil concentration four times LD50, housefly, 24 hours) turned out to be 100. Also, in data set [3] (1 week, soil concentration four times LD50, 25° C., 90% relative humidity, 10080 min), the “Residual effect in soil (mortality), 1 week” value worked out at 100. Further, in data set [3] (4 weeks, soil concentration four times LD50, 25° C., 90% relative humidity, 40320 min), the “Residual effect in soil (mortality), 4 weeks” value was 73. For the same compound, the “Residual effect in soil (mortality), 8 weeks” value in data set [3] (8 weeks, soil concentration four times LD50, 25° C., 90% relative humidity, 80640 min) was 40. Moreover, the “Residual Activity (weeks)” value in data set [3] (soil concentration four times LD50, housefly) is 4-8 weeks.
